According to patent US20020052323A1, “Quinoline-(C=O)-(multiple amino acids)-leaving group compounds for pharmaceutical compositions and reagents” (priority 2000, published 2002):
Where “and” joins values, the source holds several entries; their conditions need not be identical. Identical values can stand only once. Like-named read-outs stand apart in the source and are kept apart here.

Key:
caspase 3 = target: T1, caspase 3 (Homo sapiens, UniProt P42574); test: Caspase inhibition assay, AcDEVD-AFC substrate; type: biochemical
T1 sequence (P42574 29-175 limits assumed): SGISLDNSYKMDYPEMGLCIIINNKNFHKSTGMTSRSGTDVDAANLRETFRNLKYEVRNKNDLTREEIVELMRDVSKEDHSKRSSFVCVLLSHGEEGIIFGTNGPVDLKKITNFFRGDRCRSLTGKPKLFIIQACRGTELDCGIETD
T1 sequence (P42574 176-277 limits assumed): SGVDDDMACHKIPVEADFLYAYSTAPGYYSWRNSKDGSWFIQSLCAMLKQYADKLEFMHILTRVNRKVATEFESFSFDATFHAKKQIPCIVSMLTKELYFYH
Experimental: (§1) The determination of the IC50/μm was performed according to Gary Johnson, 9401 James Avenue, Suite No. 155, Bloomington, Minn. 55431.
(§2) Caspase Inhibition Assay:—Caspases are diluted in caspase buffer, 0.1 M HEPES, 10% sucrose 0.1% CHAPS and 10 mM DTT, pH 7.5. Caspases 1, 3, and 8 are used at a concentration of 144 U/well and caspase 9 is used at 4.8 U/well in a 96 well fluorometric plate.
(§3) Inhibitors are initially dissolved in DMSO at 10 mg/ml and further dilutions can be prepared in caspase buffer. The inhibitors are generally tested at concentrations ranging from 50 uM to 0.005 uM. These are usually prepared as 2 fold or 2.5 fold decreasing dilutions. The enzyme approximately 144 U in 120 ul caspase buffer is added to 380 ul caspase buffer containing the appropriate concentration on the inhibitor and incubated on ice for 15 min. The reactants 200 ul are then added to a black fluorimetric plate and incubated in the fluorometer at 37° C. for 30 min.
(§4) During the incubation period appropriate coumarin substrates are prepared by dilution in DMSO and caspase buffer to provide a 0.417 mM working stock. AcYVAD-AFC is used for caspase 1, AcDEVD-AFC for caspase 3. AcIETD-AFC for caspase 8 and Ac-LEHD-AFC for capsase 9. Twenty five microliters of the stock solution are added to 200 ul of the caspase and inhibitor test solutions to give a final substrate concentration of 0.046 mM.
(§5) The fluorometer is set to 400 nm excitation and 505 nm emission. The enzyme-inhibitor-substrate is allowed to incubate at for an additional twenty min. and the response is read as fluorescence units vs inhibitor concentration. The responses are plotted as percent of the maximum response (response in the absence of inhibitor) for each concentration of the inhibitor. The inhibitory activity for each inhibitor is described as the concentration of inhibitor that produces a 50% inhibition of the maximum response (IC50).

caspase 1 = target: T2, caspase 1 (Homo sapiens, UniProt P29466); test: Caspase inhibition assay, AcYVAD-AFC substrate; type: biochemical
T2 sequence (P29466 120-297 limits assumed): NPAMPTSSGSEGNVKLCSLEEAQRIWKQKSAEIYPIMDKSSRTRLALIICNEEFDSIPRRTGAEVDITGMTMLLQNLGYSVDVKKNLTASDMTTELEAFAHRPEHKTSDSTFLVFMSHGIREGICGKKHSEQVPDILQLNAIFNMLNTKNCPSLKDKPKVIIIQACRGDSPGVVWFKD
T2 sequence (P29466 317-404 limits assumed): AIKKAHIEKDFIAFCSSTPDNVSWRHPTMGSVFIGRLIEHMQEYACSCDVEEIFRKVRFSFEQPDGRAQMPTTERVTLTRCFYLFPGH
Experimental: as §1, §2, §3, §4, §5

caspase 8 = caspase 8 (Homo sapiens, UniProt Q14790); test: Caspase inhibition assay, AcIETD-AFC substrate; type: biochemical
Sequence of caspase 8 (Q14790 217-374 limits assumed, species assumed): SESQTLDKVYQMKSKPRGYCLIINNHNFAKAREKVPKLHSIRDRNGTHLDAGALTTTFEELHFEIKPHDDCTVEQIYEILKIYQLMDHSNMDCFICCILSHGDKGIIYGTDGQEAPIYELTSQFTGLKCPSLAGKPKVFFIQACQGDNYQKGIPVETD
Sequence of caspase 8 (Q14790 385-479 limits assumed, species assumed): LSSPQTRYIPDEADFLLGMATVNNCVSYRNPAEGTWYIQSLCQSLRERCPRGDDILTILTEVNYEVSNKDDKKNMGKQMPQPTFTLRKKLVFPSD
Experimental: as §1, §2, §3
During the incubation period appropriate coumarin substrates are prepared by dilution in DMSO and caspase buffer to provide a 0.417 mM working stock. AcYVAD-AFC is used for caspase 1, AcDEVD-AFC for caspase 3. […]
The fluorometer is set to 400 nm excitation and 505 nm emission. The enzyme-inhibitor-substrate is allowed to incubate at for an additional twenty min. and the response is read as fluorescence units vs inhibitor concentration. […]

caspase 9 = target: T3, caspase 9 (Homo sapiens, UniProt P55211); test: Caspase inhibition assay, Ac-LEHD-AFC substrate; type: biochemical
T3 sequence (P55211 1-315 limits assumed): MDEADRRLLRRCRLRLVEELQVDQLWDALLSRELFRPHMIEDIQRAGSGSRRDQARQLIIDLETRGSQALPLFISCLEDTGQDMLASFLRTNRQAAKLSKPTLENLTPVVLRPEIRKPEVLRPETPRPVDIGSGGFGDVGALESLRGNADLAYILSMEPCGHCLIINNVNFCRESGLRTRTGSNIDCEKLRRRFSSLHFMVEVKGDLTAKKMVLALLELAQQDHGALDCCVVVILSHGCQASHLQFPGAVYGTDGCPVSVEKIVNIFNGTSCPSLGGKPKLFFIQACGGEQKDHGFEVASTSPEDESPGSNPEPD
T3 sequence (P55211 331-416 limits assumed): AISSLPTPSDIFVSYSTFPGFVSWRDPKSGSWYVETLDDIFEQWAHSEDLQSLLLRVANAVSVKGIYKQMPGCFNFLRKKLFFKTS
Experimental: as §1, §2, §3, §4, §5

[1] = from figure, antilog of log concentration, read-out: IC50 caspase 3
[2] = from figure, antilog of log concentration, read-out: IC50 caspase 1
[3] = esterase treated inhibitor, read-out: IC50 caspase 1

## COC(=O)CC(NC(=O)C(NC(=O)c1ccc2ccccc2n1)C(C)C)C(=O)COc1ccc(CCNC(=O)OC(C)(C)C)cc1O (stereo not drawn) [Q-VD(OMe)-DOPA-BOC]
Caspase 3; Table 5, read-out: CASP-3 IC50
  IC50: < 25000 nM

## Quinoline-(2-Carbonyl)-Val-Asp(OMe)-α-(3-oxy-Dopamine) [Q-VD(OMe)-DOPA.TFA]
Caspase 3; Table 5, read-out: CASP-3 IC50
  IC50: 2000 nM

## CC(C)C[C@H](NC(=O)c1ccc2ccccc2n1)C(=O)N[C@@H](CC(=O)O)C(=O)COc1ccccc1 [quinoline-(2-carbonyl)-L-D-CH2—OPh]
Caspase 3; [1]
  IC50: ~50 nM
Caspase 1; [2]
  IC50: ~548 nM

## COC(=O)CC(NC(=O)C(NC(=O)c1ccc2ccccc2n1)C(C)C)C(=O)COc1cc(N)ccc1C(=O)O (stereo not drawn) [Q-VD(OMe)-ASA, Quinoline-(2-Carbonyl)-Val-Asp(OMe)-α-(2-oxy-Amino Salicylic Acid)]
Caspase 8; Table 5, read-out: CASP-8 IC50
  IC50: 5880 nM
Caspase 8; from figure, read-out: IC50 caspase 8
  IC50: ~5820 nM
Caspase 9; from figure, antilog of log concentration
  IC50: ~5440 nM
Caspase 3; Table 5, read-out: CASP-3 IC50
  IC50: 1240 nM
Caspase 3; [1]
  IC50: ~1230 nM and ~980 nM
Caspase 1; Table 5, read-out: CASP-1 IC50
  IC50: 1500 nM
Caspase 1; [2]
  IC50: ~1460 nM

## COC(=O)CC(NC(=O)C(NC(=O)c1ccc2ccccc2n1)C(C)C)C(=O)COc1ccccc1C(=O)O (stereo not drawn) [Q-VD(OMe)-SA, Quinoline-(2-Carbonyl)-Val-Asp(OMe)—CH—O-Salicylic Acid]
Caspase 3; Table 5, read-out: CASP-3 IC50
  IC50: 500 nM
Caspase 1; Table 5, read-out: CASP-1 IC50
  IC50: 1430 nM
Caspase 1; [2]
  IC50: ~1430 nM

## COC(=O)C[C@H](NC(=O)[C@@H](NC(=O)c1ccc2ccccc2n1)C(C)C)C(=O)COC1=C(c2ccccc2)C(=O)OC1 [Q-VD(OMe)-Tetronic Acid, Quinoline-(2-Carbonyl)-Val-Asp(OMe)—CH2-2-Phenyltetronic Acid]
Caspase 3; Table 5, read-out: CASP-3 IC50
  IC50: 250 nM

## COC(=O)C[C@H](NC(=O)[C@H](C)NC(=O)[C@@H](NC(=O)c1ccc2ccccc2n1)C(C)C)C(=O)CF [QVAD(OMe)FMK, Quinoline-(C═O)Val-Ala-Asp(OMe)-Fluoromethyl Ketone]
other
  concentration vs. >90% cell survival: 100 µM

## COC(=O)CC(NC(=O)C(CC(C)C)NC(=O)c1ccc2ccccc2n1)C(=O)CF [quinoline-(2-carbonyl)-L-D(OMe)—CH2-FMK]
Caspase 9; esterase treated inhibitor
  IC50: ~70 nM
Caspase 9; non-esterase treated inhibitor
  IC50: ~65 nM
Caspase 3; esterase treated inhibitor, read-out: IC50 caspase 3
  IC50: ~31 nM
Caspase 3; non-esterase treated inhibitor, read-out: IC50 caspase 3
  IC50: 45 nM
Caspase 1; [3]
  IC50: ~39.8 nM

## COC(=O)CC(NC(=O)C(NC(=O)c1ccc2ccccc2n1)C(C)C)C(=O)CF [quinoline-(2-carbonyl)-V-D(OMe)—CH2-FMK, Quinoline-(2-Carbonyl)-V-D-(OMe)-α-CH2F (the Fluoromethyl Ketone)]
Caspase 9; esterase treated inhibitor
  IC50: 25 nM
Caspase 9; non-esterase treated inhibitor
  IC50: ~29 nM
Caspase 1; [3]
  IC50: ~68 nM
